Tests used:
human TRPA1 (hTRPA1) [1] = target: T1, human TRPA1 (hTRPA1) (Homo sapiens, UniProt O75762); experiment: Intracellular Ca2+ Imaging Assay 1 (TRPA1 activation rate, hTRPA1 stable expression cell line); type: cell-based; conditions: for TRPA1 Activation Rate (Mean ± Standard Error): relative to ionomycin, n = 6
T1 construct: expressed in transfected cells
Protocol: (§1) A DNA coding for human TRPA1 (hTRPA1) (GenBank accession number: NM_007332.3) was inserted into the pcDNA5/TO vector (Invitrogen) to create an expression vector. This expression vector was transfected into T-REx™-293 cells (Invitrogen) by a conventional method using Lipofectamine LTX (Invitrogen). Using 10% fetal bovine serum (FBS, Cytiva), 400μ/mL hygromycin B, and 5 μg/mL blasticidin S, which were added to Dulbecco's Modified Eagle Medium (DMEM, Nacalai Tesque) as drug selection medium, the transfectants were cultured by a conventional method and cloned to obtain an hTRPA1 stable expression cell line.
Two hundred microliters of each mushroom extract solution prepared in item 1 (1) was dispensed and the solvent was removed under vacuum using a desiccator. The dried residue left in the container was dissolved in 1 mL of assay buffer (Hank's Balanced Salt Solution without calcium and magnesium ions, containing 1 mM CaCl2 dihydrate, 20 mM HEPES, and 0.1% BSA). […]
(§2) This plate was set in FlexStation3 (Molecular Devices) and the fluorescence intensity (excitation at 490 nm, emission at 525 nm) was measured every 2 seconds at 31° C.; 30 seconds after the start of measurement, 100 μL of assay buffer containing the negative control DMSO (final concentration: 20 μL/mL), the positive control allyl isothiocyanate (AITC) (AITC was dissolved in DMSO; final concentration: 30 μM), each mushroom extract solution described above, or lenthionine (manufactured by Ambeed, Inc.) (lenthionine was dissolved in DMSO; final concentration: 50 μM) was added. In addition, to determine the reference for fluorescence intensity, wells to which assay buffer containing ionomycin (final concentration: 10 µM after addition) was added were prepared instead of the test samples.
(§3) Fluorescence intensity measurement was continued until 120 seconds from the start; the TRPA1-activating ability of the test samples and so forth was calculated using the formula below.
Fmax[s]: maximum fluorescence intensity after adding the test sample or positive control […]
Fmax[I]: maximum fluorescence intensity after adding ionomycin

human TRPA1 (hTRPA1) [2] = target: T1, human TRPA1 (hTRPA1); experiment: Intracellular Ca2+ Imaging Assay 2 (stepwise concentrations 0.01 μM-300 μM); type: cell-based
Protocol: as §1
(§4) Next, an hTRPA1 stable expression cell line whose hTRPA1 expression had been induced in advance by a conventional method was prepared in a 96-well clear-bottom plate; after washing each well with PBS, 50 μL of assay buffer (Hank's Balanced Salt Solution without calcium and magnesium ions, containing 1 mM CaCl2 dihydrate, 20 mM HEPES, 0.1% BSA, and 4 μM Calbryte™ 520 AM (manufactured by AAT BioQuest)) was added and incubated for 45 minutes at 33° C. After washing with assay buffer, 100 μL of assay buffer was added to each well.
as §2, §3
Aside from using samples in which the concentrations of AITC or lenthionine were set stepwise in the range of 0.01 μM-300 μM, the procedure was the same as in (2) above; the TRPA1-activating abilities of each sample were measured.

human TRPA1 (hTRPA1) [3] = target: T1, human TRPA1 (hTRPA1); experiment: Intracellular Ca2+ Imaging Assay 3 (with or without TRPA1-specific antagonist A-967079); type: cell-based
Protocol: as §1, §4, §2, §3
Samples of 30 μM AITC, 100 μM or 5 μM lenthionine, or DMSO were used; the test was performed either in the presence of the TRPA1-specific antagonist A-967079 (1 μM) or in the absence thereof (DMSO: 20 μL/mL); apart from this, the procedure was the same as in (3) above, and the TRPA1-activating abilities of each sample were measured.

Male ICR mice = experiment: Test 1 for Ameliorating Decreased Appetite (food intake in mice after single gastric gavage); type: in vivo; conditions: for Food Intake (Mean ± Standard Error, n = 10): lenthionine 50 μmol/kg body weight, single gastric gavage, 30 minutes after start of feeding
Protocol: Male ICR mice were kept in individual cages with ALPHA-dri (Shepherd Specialty Papers) as bedding, and they were fed a powdered diet (CE-2, CLEA Japan) using a powder feeder for mice (SN-950, Shinano Seisakusho Co., Ltd.), with ad libitum feeding and free access to water, for at least one week for acclimatization. During the few days prior to the experiment, daily handling and gavage training using a feeding needle (FG4202, Fuchigami Kikai) were performed.
As test samples, the following were prepared for each of carrier solution (containing, by volume, 5% dimethyl sulfoxide, 1% Tween80, and 94% corn oil) and lenthionine solution (carrier solution containing 0.94 mg lenthionine per 1 mL): one containing the TRPA1-specific antagonist A-967079 (1.0 μmol of A-967079 per 1 mL of the carrier solution) and one not containing it; one of these was administered to 11- to 12-week-old mice under ad libitum feeding conditions by a single gastric gavage at 9:20 a.m. at 10 mL/kg body weight. The dose of lenthionine in molar terms was 50 μmol/kg body weight. Immediately after the single gavage, at 9:30 a.m., the powdered feeder inside the cage was replaced with a new feeder loaded with powdered diet whose mass had been measured beforehand; this time point was set as the start of the feeding experiment. Thirty minutes after the start of the feeding experiment, the mass of the feeder and any spilled feed in the cage was measured, and the food intake (g) was calculated (n=10).

T1 sequence (O75762 whole entry): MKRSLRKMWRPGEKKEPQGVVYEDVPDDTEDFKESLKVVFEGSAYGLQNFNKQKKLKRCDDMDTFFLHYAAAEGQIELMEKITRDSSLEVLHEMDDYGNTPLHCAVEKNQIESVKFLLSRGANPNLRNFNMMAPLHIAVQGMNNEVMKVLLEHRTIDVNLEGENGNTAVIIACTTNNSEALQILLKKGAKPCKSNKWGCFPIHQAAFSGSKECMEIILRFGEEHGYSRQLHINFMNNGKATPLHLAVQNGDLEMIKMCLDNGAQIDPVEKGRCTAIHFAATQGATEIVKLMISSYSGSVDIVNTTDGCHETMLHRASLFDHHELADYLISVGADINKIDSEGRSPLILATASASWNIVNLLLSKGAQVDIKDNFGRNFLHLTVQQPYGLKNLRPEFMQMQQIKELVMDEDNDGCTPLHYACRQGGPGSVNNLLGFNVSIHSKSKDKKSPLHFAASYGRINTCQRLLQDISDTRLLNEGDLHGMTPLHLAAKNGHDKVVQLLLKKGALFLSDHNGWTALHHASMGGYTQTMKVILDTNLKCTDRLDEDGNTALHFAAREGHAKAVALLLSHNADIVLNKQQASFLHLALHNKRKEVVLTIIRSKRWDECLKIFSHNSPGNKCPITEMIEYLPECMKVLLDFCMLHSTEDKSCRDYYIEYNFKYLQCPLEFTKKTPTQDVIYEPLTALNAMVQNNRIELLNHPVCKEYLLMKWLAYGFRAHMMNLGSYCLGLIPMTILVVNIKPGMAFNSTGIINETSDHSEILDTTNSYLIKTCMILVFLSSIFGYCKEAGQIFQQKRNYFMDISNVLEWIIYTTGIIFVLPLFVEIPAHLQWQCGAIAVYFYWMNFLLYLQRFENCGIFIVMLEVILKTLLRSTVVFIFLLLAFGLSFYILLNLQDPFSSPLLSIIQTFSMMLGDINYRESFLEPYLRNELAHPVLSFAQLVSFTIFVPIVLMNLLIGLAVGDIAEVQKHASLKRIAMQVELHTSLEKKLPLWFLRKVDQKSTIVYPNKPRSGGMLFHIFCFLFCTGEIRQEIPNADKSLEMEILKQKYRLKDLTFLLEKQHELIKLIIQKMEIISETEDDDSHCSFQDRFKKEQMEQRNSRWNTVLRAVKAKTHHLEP

SMILES | TRPA1 Activation Rate (Mean ± Standard Error, n = 6) (human TRPA1 (hTRPA1) [2]; 0.01 μM) | TRPA1 Activation Rate (Mean ± Standard Error, n = 6) (human TRPA1 (hTRPA1) [2]; 0.1 μM) | TRPA1 Activation Rate (Mean ± Standard Error, n = 6) (human TRPA1 (hTRPA1) [2]; 0.5 μM) | TRPA1 Activation Rate (Mean ± Standard Error, n = 6) (human TRPA1 (hTRPA1) [2]; 1 μM) | TRPA1 Activation Rate (Mean ± Standard Error, n = 6) (human TRPA1 (hTRPA1) [2]; 5 μM) | TRPA1 Activation Rate (Mean ± Standard Error, n = 6) (human TRPA1 (hTRPA1) [2]; 10 μM) | TRPA1 Activation Rate (Mean ± Standard Error, n = 6) (human TRPA1 (hTRPA1) [2]; 50 μM) | TRPA1 Activation Rate (Mean ± Standard Error, n = 6) (human TRPA1 (hTRPA1) [2]; 100 μM) | TRPA1 Activation Rate (Mean ± Standard Error, n = 6) (human TRPA1 (hTRPA1) [2]; 300 μM) | other results
C=CCN=C=S [AITC, allyl isothiocyanate, reference compound] | 4.02 ± 0.50% | 5.20 ± 0.19% | 6.19 ± 0.32% | 13.0 ± 1.79% | 64.0 ± 4.13% | 85.2 ± 3.76% | 105 ± 1.86% | 117 ± 2.57% | 119 ± 2.74% | TRPA1 Activation Rate (Mean ± Standard Error) (human TRPA1 (hTRPA1) [1]; AITC 30 μM final concentration): 106 ± 1.89%; TRPA1 Activation Rate (Mean ± Standard Error, n = 6) (human TRPA1 (hTRPA1) [3]; 30 μM, No Antagonist (DMSO 20 μL/mL)): 156 ± 1.38%; TRPA1 Activation Rate (Mean ± Standard Error, n = 6) (human TRPA1 (hTRPA1) [3]; 30 μM, With Antagonist A-967079 (1 μM)): 1.22 ± 0.06 %
C1SSCSSS1 [Lenthionine, 1,2,3,5,6-pentathiepane] | 2.64 ± 0.19% | 2.42 ± 0.14% | 10.2 ± 0.82% | 22.3 ± 1.04% | 53.8 ± 2.29% | 72.5 ± 2.88% | 92.6 ± 3.83% | 104 ± 1.94% | 118 ± 2.65% | TRPA1-activating effect (in words) (human TRPA1 (hTRPA1) [1]; Ca2+ imaging assay 1, summary of Table 1): activated TRPA1; TRPA1 Activation Rate (Mean ± Standard Error) (human TRPA1 (hTRPA1) [1]; lenthionine 50 μM final concentration): 93.0 ± 3.70%; TRPA1-activating effect, concentration dependence (in words) (human TRPA1 (hTRPA1) [2]; 0.01 μM-300 μM, compared with AITC): activated TRPA1 in a concentration-dependent manner, at similar intensity to AITC; TRPA1 Activation Rate (Mean ± Standard Error, n = 6) (human TRPA1 (hTRPA1) [3]; 5 μM, No Antagonist (DMSO 20 μL/mL)): 64.6 ± 1.38%; TRPA1 Activation Rate (Mean ± Standard Error, n = 6) (human TRPA1 (hTRPA1) [3]; 5 μM, With Antagonist A-967079 (1 μM)): 1.46 ± 0.14 %; TRPA1 Activation Rate (Mean ± Standard Error, n = 6) (human TRPA1 (hTRPA1) [3]; 100 μM, No Antagonist (DMSO 20 μL/mL)): 133 ± 1.36%; TRPA1 Activation Rate (Mean ± Standard Error, n = 6) (human TRPA1 (hTRPA1) [3]; 100 μM, With Antagonist A-967079 (1 μM)): 1.61 ± 0.37 %; TRPA1-activating effect in presence of TRPA1-specific antagonist (in words) (human TRPA1 (hTRPA1) [3]; A-967079 1 μM): inhibited by the TRPA1-specific antagonist; Food Intake (Mean ± Standard Error, n = 10) (Male ICR mice; No Antagonist): 0.117 ± 0.035 g; Food Intake (Mean ± Standard Error, n = 10) (Male ICR mice; With Antagonist A-967079 (1.0 μmol per 1 mL)): 0.025 ± 0.023 g; Food intake versus carrier solution (in words) (Male ICR mice; lenthionine solution with TRPA1-specific antagonist A-967079): no increase in food intake was observed; Food intake versus carrier solution (in words) (Male ICR mice; lenthionine solution, No Antagonist): food intake increased
